Results taken from patent publication EP4424307A1, “PROTECTIVE AGENT FOR USE IN PERITONEAL DIALYSIS” (Zytoprotec GmbH, priority 2023, dated 2024).
Peptide text beside a SMILES is read from it.

What was measured:
[1] = system: PD induced hepatic inflammatory response; assay: Murine chronic PD exposure model, liver histology (NAS, Oil Red O, Sirius Red); type: in vivo; conditions: uremic mice with PD, PDF supplemented with Alanyl-Glutamine 8 mM
From the text: (§1) The inventors conducted a murine PD exposure experiment resembling chronic PD in healthy and uremic mice: The experiment consisted of n=34 animals in six distinct groups.
(§2) The animals were split in the following groups: • 1) Healthy control animals ("control") • 2) Healthy animals receiving PD treatment (via an indwelling catheter) ("PD") • 3) Healthy animals receiving PD treatment (via an indwelling catheter) supplemented with Alanyl-Glutamine ("PD+AG") • 4) Uremic animals ("uremic") • 5) Uremic animals receiving PD treatment (via an indwelling catheter) ("uremic PD") • 6) Uremic animals receiving PD treatment (via an indwelling catheter) supplemented with Alanyl-Glutamine ("uremic PD+AG")
(§3) All animals of the uremic groups (Groups 4, 5, and 6) were subjected to left-sided 2/3 nephrectomy at day 0 of the study, and to complete right-sided nephrectomy at day 7 of the study, thereby inducing chronic kidney disease.
(§4) All animals receiving PD treatment (Groups 2, 3, 5, and 6) had their indwelling catheter implanted at day 7 of the study.
Animals in groups 2,3, 5, and 6 received daily PDF (Dianeal PD4 3.86% [Baxter, Deerfield, IL, USA]) injections via their indwelling catheter starting from day 14 over the course of six weeks, thereby inducing chronic PDF exposure.
For animals of groups 3 and 6 the daily PDF injections were supplemented with Alanyl-Glutamine (8 mM) over the course of six weeks.
At sacrifice (day 56 of the study), animal livers were subjected to histologic analysis.
NAFLD activity score (NAS) assessment was conducted as previously described (47) on hematoxylin & eosin (H&E) stained hepatic tissue on one facial field image per mouse.
Steatosis hepatis was assessed by semi-quantitative measurement of Oil Red O stained hepatic tissue with one facial field image per mouse.
Fibrosis hepatis was assessed by semi-quantitative measurement of Sirius Red stained hepatic tissue with one facial field image per mouse.

[2] = system: acute-phase-response- and inflammation-associated proteins within the liver; assay: Murine chronic PD exposure model, mass spectrometry proteomics analysis of liver; type: in vivo, mice; conditions: liver of uremic animals receiving PD; of 57 proteins dysregulated by PD; p<0.05
From the text: as §1, §2, §3, §4
Animals in groups 2,3, 5, and 6 received daily PDF (Dianeal PD4 3.86% [Baxter, Deerfield, IL, USA]) injections via their indwelling catheter starting from day 14 over the course of six weeks, thereby inducing chronic PDF exposure. […]

[3] = system: clinical markers of liver injury; assay: Secondary analysis of phase II crossover trial of Alanyl-Glutamine supplementation to PDF, liver tests; type: in vivo, human; conditions: patients on chronic PD, n=41, crossover
From the text: To further investigate the effect of Alanyl-Glutamine supplementation to PDF in human PD-induced hepatic (dys)function, the inventors conducted a secondary analysis of a prospective, multicenter, double-blinded, controlled, randomized, dual-period, 2-treatment, crossover, phase II, proof-of-concept study including eight Austrian centers for Alanyl-Glutamine supplementation to the PDF in patients on chronic PD.
This study cohort and its baseline characteristics have already been previously described by Vychytil et al (8).

systemic inflammation = conditions: addition to PDF in PD patients; tendency for hs-CRP and IL-6, statistical significance with IL-8; cited from earlier work
[4] = system: hepatic reperfusion-injury; conditions: rat model; cited from earlier work
[5] = system: LPS-induced acute liver injury; conditions: mice; cited from earlier work
[6] = system: steatohepatitis and fibrosis; conditions: murine NAFLD model; cited from earlier work
[7] = H&E liver sections, daily over six weeks, vs uremic PD
[8] = log10 transformed due to skewness

In the case of `C[C@H](N)C(=O)N[C@@H](CCC(N)=O)C(=O)O` [Alanyl-Glutamine, L-alanyl-L-glutamine] (H-Ala-Gln-OH), the “areas of hepatocyte ballooning” value [1, 7] is reported as “decreased”, the “numbers of inflammatory immune cell infiltrates” value [1, 7] is reported as “markedly decreased” and the “PD induced fibrosis (% area of Sirius Red stained tissue)” value ([1]; liver sections) is reported as “trends of improvement”. For the same molecule, the “PD induced steatosis (% area of Oil Red O stained tissue)” value ([1]; liver sections) was “trends of improvement”, the “NAFLD activity score (NAS)” value ([1]; daily over six weeks, vs uremic PD, Mann Whitney U test) was “significantly (p<0.05) decreased” and the “number of acute-phase-response- and inflammation-associated proteins with significantly altered abundance” value [2] was 11. For the same molecule, the “GGT, Least squares mean (95% CI)” value [3, 8] was 1.41 (1.37 to 1.46) U/L, the “GOT/AST, Least squares mean (95% CI)” value [3, 8] was 1.23 (1.19 to 1.27) U/L and the “GPT/ALT, Least squares mean (95% CI)” value [3, 8] was 1.20 (1.15 to 1.25) U/L. The “LDH, Least squares mean (95% CI)” value [3, 8] was 2.30 (2.27 to 2.32) U/L, the “LDH, Difference Alanyl-Glutamine-placebo, estimate ± SE” value ([3]; log10 transformed, p value 0.0206) was -0.03 ± 0.01 U/L and the “GPT/ALT, Difference Alanyl-Glutamine-placebo, estimate ± SE” value ([3]; log10 transformed, p value 0.0466) was -0.06 ± 0.03 U/L. For the same molecule, the “GOT/AST, Difference Alanyl-Glutamine-placebo, estimate ± SE” value ([3]; log10 transformed, p value 0.1877) was -0.04 ± 0.03 U/L, the “GGT, Difference Alanyl-Glutamine-placebo, estimate ± SE” value ([3]; log10 transformed, p value 0.4901) was -0.02 ± 0.02 U/L and the “systemic inflammation (hs-CRP, IL-6, IL-8)” value (systemic inflammation) was “attenuate systemic inflammation”. The hepatic reperfusion-injury [4] was “reduce hepatic reperfusion-injury”, the “LPS-induced acute liver injury” value [5] was “protect mice against LPS-induced acute liver injury” and the steatohepatitis and fibrosis [6] was “significantly attenuate steatohepatitis and fibrosis”.
